# PubChem BioAssay AID743267 (Broad Institute, 2014)
# Test system: human bronchial epithelial cells, CFTR corrector, plate reader
# Experiment: CFTR ΔF508 corrector activity in bronchial cells, dose response, human bronchial epithelial cells, plate reader, cherry-pick, two tests (AID 743267)
# [1] = measured here: test 2 replicate run
# [2] = measured here: test 1 replicate run
SMILES,AC50 [1] [µM],AC50 [2] [µM]
O=c1ccc2c(-c3ccccc3)c3ccc(O)cc3oc-2c1,2.2,
CN1c2ccc(-c3ccc(C#N)cc3)cc2[C@H]2[C@H](CCN2S(=O)(=O)c2cccc(F)c2)[C@@H]1CO,,16
O=c1[nH]c(CN2CCN(c3ccc(O)cc3)CC2)nc2scc(-c3ccc(Cl)cc3)c12,6.45,
O=C(NCc1ccccc1)C1Cc2c(-c3ccc(Cl)cc3)ccnc2O1 (stereo unspecified),2.18,
CN1c2ccc(-c3ccc(F)cc3)cc2[C@H]2[C@H](CCN2S(=O)(=O)c2ccc(F)cc2)[C@H]1CO,,6.55
CN(C)S(=O)(=O)c1ccc2c(c1)/C(=C/c1cc3c([nH]1)CCCC3)C(=O)N2,6.59,
CCOC1=C/C(=C/c2c(N)n3nc(S(=O)(=O)CC)sc3nc2=O)C=CC1=O,24.9,
CN1c2ccc(-c3ccc(F)cc3)cc2[C@H]2[C@H](CCN2S(=O)(=O)c2cccc(F)c2)[C@@H]1CO,,7.66
COc1ccc(OC)c(C(=O)Cn2nnc(-c3ccc(N4CCOCC4)cc3)n2)c1,31.1,
COc1ccc(-c2ccc3c(c2)[C@H]2[C@H](CCN2S(=O)(=O)c2ccc(OC)cc2)[C@H](CO)N3C)cc1,,1.17
COc1cc(OC)c(-c2c3cc(O)c(=O)cc-3oc3cc(O)c(O)cc23)cc1OC,8.08,
Cc1ccc(S(=O)(=O)N2CCOCC2)cc1NC(=O)CSc1n[nH]c(N)n1,> 50,
CCN(CC)c1ccc(/C=N/NC(=O)c2cnccn2)cc1,2.12,
COc1cc(NC(=O)c2csc(N)n2)cc(C(=O)Nc2cccc(C(F)(F)F)c2)c1,16,
CO[C@@]12[C@@H]3N[C@@H]3CN1C1=C(C(=O)C(N)=C(C)C1=O)[C@@H]2COC(N)=O,11.5,
N=C1/C(=C/c2cccn2CCOc2ccccc2)C(=O)N=C2SC=C(c3ccccc3)N12,10.8,
O=C(CSC1=NNC(c2ccccn2)S1)Nc1ccccc1 (stereo unspecified),> 50,
Clc1ccc2c(c1)-c1ccccc1C1=NCCN12,2.72,
Cc1ccc(S(=O)(=O)N[C@H](C(=O)OCC(=O)NC(=O)C2CCCCC2)C(C)C)cc1,38.6,
COC(=O)CSC1=C(C#N)C(c2ccc(C)o2)CC(=O)N1 (stereo unspecified),8.06,
Cc1ccc(C(=O)NC(=S)NNC(=O)c2ccccc2O)cc1,> 50,
COC(=O)c1ccc(S(=O)(=O)N2CCc3ccccc32)cc1,19.1,

SMILES,AC50 [1] [µM],AC50 [2] [µM]
C=CCCC(=O)Nc1nc(C)c(-c2csc(Nc3cc(OC)ccc3OC)n2)s1,10.3,
O=C1c2cccc(NCCCNCCO)c2C(=O)c2cccc(NCCCNCCO)c21,16,
CC1=C/C(=C\C=C(C#N)C#N)N(C)c2ccccc21,12.9,
CC(=O)Nc1ccc2cc3ccc(NC(C)=O)cc3nc2c1,18.1,
COc1ccc(C2C3=C(COC3=O)Oc3cc4c(cc32)OCO4)cc1OC (stereo unspecified),3.72,
Cc1cc(NCc2ccccn2)n2nc(C)c(-c3ccccc3)c2n1,4.77,
NS(=O)(=O)c1ccc(NNC(=O)c2ccc(Br)o2)c([N+](=O)[O-])c1,8.91,
O=C(Nc1ccc(Br)cn1)c1cccc2ccccc12,1.97,
C=CCN1C(=O)/C(=C/C=C2/N(CC)c3ccc(S(=O)(=O)N(C)C)cc3N2CC)SC1=S,3.35,
Cc1c(C(=O)N/N=C/c2c(O)ccc3ccccc23)nnn1-c1nonc1N,0.462,
O=[N+]([O-])c1ccc(/C=C/C2=NN(c3ccccc3)C(c3ccco3)C2)o1 (stereo unspecified),18.1,
CC(=O)N1CCc2cc(S(=O)(=O)N3c4ccccc4CC3C)ccc21 (stereo unspecified),6.73,
CC(=O)Oc1ccc(N2C(=O)c3cccc4c([N+](=O)[O-])ccc(c34)C2=O)cc1,20.6,
COCCNc1nc(Nc2ccc(C)cc2C)c2sccc2n1,2.34,
COc1ccc(C(=O)OCC(=O)N2C(C)CCCC2C)cc1S(=O)(=O)N1CCOCC1 (stereo unspecified),29.6,
C[C@H]1CCCCO[C@@H](CN(C)C(=O)C2CCCCC2)[C@@H](C)CN([C@@H](C)CO)C(=O)c2cc(NC(=O)Nc3ccc(C(F)(F)F)cc3)ccc2O1,,15.8
CN1c2ccc(-c3ccc(C#N)cc3)cc2[C@H]2[C@H](CCN2S(=O)(=O)c2cccc(F)c2)[C@H]1CO,,0.128
CN(C)CCNC(=O)c1ccc(Cl)c2cc3ccccc3nc12,5.35,
Cc1cccc(NC(=O)CN2CCN(C(=O)CN3C(=O)NC4(CC(C)CC(C)(C)C4)C3=O)CC2)c1C (stereo unspecified),2.69,
CCc1ccc(-c2nc(C(N)=O)c3[nH]c(=O)n(-c4ccccc4OC)c3n2)cc1,1.33,
COc1ccc2c(c1)C(O)C(CO)C(C(=O)O)C2 (stereo unspecified),9.28,
O=C(c1ccc(Br)cc1)c1cc([N+](=O)[O-])ccc1N1CCOCC1,1.69,

SMILES,AC50 [1] [µM],AC50 [2] [µM]
Clc1ccc(SCc2cc(N3CCOCC3)nc(-c3ccccn3)n2)cc1,4.5,
COc1ccc(S(=O)(=O)N2CC[C@@H]3[C@@H](CO)Nc4ccc(-c5cccc(C#N)c5)cc4[C@@H]32)cc1,,16
O=S1(=O)CCN(C(CO)c2ccccc2)CC1 (stereo unspecified),43.3,
CCOc1ccc(C)cc1S(=O)(=O)n1cnc2ccccc21,8.08,
CCCCn1cnc2c(c(CC#N)nn2-c2ccccc2)c1=N,> 50,
Cn1c(=O)c(NC2CCCCC2)c2c3c(cccc31)C(=O)c1ccccc1-2,8.48,
Cc1cnc(NC(=O)CCc2ccccc2)s1,6.6,
COc1cccc(S(=O)(=O)N(C)C[C@@H]2Oc3cc(C4=CCCC4)ccc3S(=O)(=O)N([C@H](C)CO)C[C@H]2C)c1,,16
Cc1ccc(S(=O)(=O)NCc2ccccc2)cc1C(=O)N1CC(C)CC(C)C1 (stereo unspecified),> 50,
Nc1ccn([C@@H]2O[C@H](CO)[C@@H](O)[C@@H]2O)c(=O)n1,0.541,
Nc1ccc2ccc3cccc[n+]3c2c1,21.3,
CC(Sc1nc2ccccc2c(=O)n1C)C(=O)Nc1ccc2c(c1)OCCO2 (stereo unspecified),> 50,
Cc1cc(C(=O)N/N=C/c2ccc([N+](=O)[O-])cc2)c2ccccc2n1,3.96,
O=C(N/N=C/c1cccs1)c1cc(C2CC2)nc2ccccc12,6.27,
Cc1cccc(C(=O)N(Cc2ccco2)c2c(N)n(Cc3ccccc3)c(=O)[nH]c2=O)c1,> 50,
CCc1ccccc1N(C)S(=O)(=O)c1ccc(-c2cc(C)no2)s1,6.87,
Cc1cc(NC(=O)CN2C(=O)NC3(CCCCCC3)C2=O)ccc1Br,8.4,
Cn1cc(C(=O)OCC2CCN(CCNS(C)(=O)=O)CC2)c2ccccc21,> 50,
O=C(CCC(=O)N1CCOc2ccc(Cl)cc21)N1CCN(c2ccccn2)CC1,> 50,
CN(Cc1ccccc1)S(=O)(=O)c1ccc(NC(=S)NC(=O)C2CCCC2)cc1,5.32,
COc1cccc(/C=N/Nc2ncnc(Cl)c2N)c1O,12.8,
CCN(Cc1ccccc1)c1ccc(/C=N/N=C(N)N)cc1,4.74,

SMILES,AC50 [1] [µM],AC50 [2] [µM]
CCOC(=O)c1ccc(-c2c(-c3cc(OC)c(OC)c(OC)c3)noc2C)cc1F,1.2,
O=C1c2cccc3c(N4CCCCC4)ccc(c23)C(=O)N1c1cccc(O)c1,24.3,
COc1ccc(NC(=O)c2nc(C)c(C3(C)CC(c4cccnc4)=NO3)s2)cc1 (stereo unspecified),2.75,
CC(C)(C)c1cc(C(=O)NN)n(Cc2ccc(Cl)cc2Cl)n1,> 50,
O=C(Cc1ccccc1)N1CC(=O)N2[C@H](CO)[C@@H](c3ccc(-c4ccccc4)cc3)[C@@H]2C1,,24.6
Cc1cc(/C=N/n2c(COc3ccccc3C)nc3ccccc3c2=O)c(O)c([N+](=O)[O-])c1,5.53,
CCC1=Nc2cc(C(=O)NCC3CCCO3)ccc2Sc2ccc(Cl)cc21 (stereo unspecified),7.26,
Cc1cc(N/N=C/c2ccccc2O)c2ccccc2n1,21.1,
CN1C(=O)c2cccc3c(N)ccc(c23)C1=O,18.3,
COc1cc(OC)cc(C(=O)N2CC(=O)Nc3ccccc32)c1,2.1,
O=C(N/N=C/c1cc(Br)cc(Cl)c1O)c1ccc2c(c1)OCO2,9.98,
O=S(=O)(c1ccc(Br)cc1)N1CCCc2ccccc21,> 50,
Cc1ccc(S(=O)(=O)N2CCCCC2CCNC(=O)C(=O)NCc2ccccc2)cc1 (stereo unspecified),3.29,
Cc1noc(C)c1COc1ccc(C(=O)NNC(=O)c2ccccc2)cc1,6.4,
Cc1ccc(-c2csc3ncn(CC#N)c(=O)c23)cc1C,35.7,
Cc1cccc(OCCNC(=O)c2ccc(Cl)c(S(=O)(=O)NCc3cccnc3)c2)c1,1.97,
CC(C)Nc1ccc(Nc2ccnc3cc4ccccc4cc23)cc1,7.34,
Cc1ccc(C2(C)NC(=O)N(CC(=O)Nc3nc(-c4ccccn4)cs3)C2=O)cc1 (stereo unspecified),4.23,
Cc1ccc(OCC(=O)Nc2ccc3c(c2)ncn3C)cc1,> 50,
COc1ccc(C2=NOC(C(=O)NCc3ccccc3)C2)cc1 (stereo unspecified),2.42,
CCOC(=O)c1ccc(Nc2sc(C(=O)c3cccc([N+](=O)[O-])c3)c(N)c2C#N)cc1,1.84,
CCOC(=O)CSC1=C(C#N)C(c2ccc(C)s2)CC(=O)N1 (stereo unspecified),5.6,

SMILES,AC50 [1] [µM],AC50 [2] [µM]
COc1ccc(-c2cnc3c(NC=O)cc(-c4ccccc4)cn23)cc1OC,0.793,
Cc1nc(NCc2cccnc2)c2c3c(sc2n1)CCCC3,7.38,
N#Cc1nc(NCC(F)F)nc(Nc2cc(F)cc(F)c2)n1,16,
CS(=O)(=O)N1CC(=O)N2[C@H](C1)[C@H](c1ccc(C#Cc3ccc(F)cc3)cc1)[C@@H]2CO,,23.9
Cc1ccc(-c2cccc(CN3CCN(C(C)C)C(CCO)C3)c2)o1 (stereo unspecified),> 50,
COc1cccc(C(=O)Nc2sc3c(c2C#N)CCN(C(C)=O)C3)c1,1.36,
Brc1ccc2c(c1)C(C1=NCCN1)c1ccccc1CS2 (stereo unspecified),16,
CCSc1nnc(N2C(=O)C(O)=C(C(=O)c3ccco3)C2c2cccc(OC)c2)s1 (stereo unspecified),> 50,
C[C@@H]1CN([C@@H](C)CO)C(=O)Cc2cc(N(C)C)ccc2O[C@@H]1CN(C)Cc1ccc(C(=O)Nc2ccccc2N)cc1,,10.3
Cc1ccc(C(=O)N/N=C/c2cc(Br)ccc2O)cn1,0.672,
CCN(CC)CCCNc1nc2ccccc2c2nc(-c3ccncc3)nn12,6.34,
CN1c2ccc(-c3ccc(F)cc3)cc2[C@H]2[C@H](CCN2S(=O)(=O)c2cccc(F)c2)[C@H]1CO,,4.41
CC(=O)Nc1ccc(S(=O)(=O)Nc2cccc(-c3nc4cc(C)ccc4o3)c2)cc1,8.92,
CCS(=O)(=O)N1CC(=O)N2[C@H](CO)[C@@H](c3ccc(C#CCC(C)C)cc3)[C@@H]2C1,,0.0676
COc1ccccc1C1CC(=O)Nc2cc3c(cc21)OCCO3 (stereo unspecified),1.96,
CC1CN(S(=O)(=O)c2cccc(C(=O)Nc3cc(Cl)ccc3N3CCOCC3)c2)CC(C)O1 (stereo unspecified),> 50,
Cc1ccc2nc(-c3ccc4c(c3)OCCO4)cn2c1,2.33,
CCN(CC)C(=O)c1oc2ccc(S(=O)(=O)N3CC(C)CC(C)C3)cc2c1C (stereo unspecified),10.5,
